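Following 48 hours of exposure in 96-well plates, responses at five concentrations were used to interpolate endpoints linearly. The concentration for 50% growth inhibition is given as GI50.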 Activity calls are given as the source filed them. Rule as the data show it: active = GI50 up to about 1.1 µM and inactive = higher.
Experiments:
Test in all cases: NCI-60 cell line screen, 48 h
[1] = system: A549
[2] = system: HCC 2998
[3] = system: HCT-15
[4] = system: HL-60
[5] = system: K562
[6] = system: LOX IMVI
[7] = system: M14
[8] = system: MCF7
[9] = system: NCI-H226
[10] = system: NCI-H460
[11] = system: NCI/ADR-RES
[12] = system: OVCAR-4
[13] = system: OVCAR-5
[14] = system: OVCAR-8
[15] = system: RPMI-8226
[16] = system: SF-268
[17] = system: SK-OV-3
[18] = system: SN12C
[19] = system: U-251
[20] = system: UACC-257

| SMILES | GI50 [1] | GI50 [2] | GI50 [3] [µM] | GI50 [4] | GI50 [5] | GI50 [6] | GI50 [7] | GI50 [8] | GI50 [9] | GI50 [10] | GI50 [11] | GI50 [12] | GI50 [13] | GI50 [14] | GI50 [15] | GI50 [16] | GI50 [17] | GI50 [18] | GI50 [19] | GI50 [20] |
| --- | --- | --- | --- | --- | --- | --- | --- | --- | --- | --- | --- | --- | --- | --- | --- | --- | --- | --- | --- | --- |
| COc1cc(Nc2nc3ccc(C(F)(F)F)cc3nc2C(=O)O)cc(OC)c1OC | 33.3 µM (inactive) | 18.6 µM (inactive) | 18.2 | 31.3 µM (inactive) | 17.9 µM (inactive) | 19.1 µM (inactive) | 30 µM (inactive) | 26.2 µM (inactive) | 21.4 µM (inactive) | 21.2 µM (inactive) | 21.3 µM (inactive) | 15.1 µM (inactive) | 36.1 µM (inactive) | 27.7 µM (inactive) | 21.5 µM (inactive) | 18.8 µM (inactive) | 29.2 µM (inactive) | 14.4 µM (inactive) | 19 µM (inactive) | 20 µM (inactive) |
| CC1C(O)C2(Oc3cc4c(c5c3[C@@H](CC5O)[C@H]2C)CCC2Cc3nc5c(nc3C[C@@]42C)CC2CCC3C4=C[C@H]6O[C@@]7(O[C@@](C)(CO)C[C@@H]7O)C(C)[C@@]6(O)[C@]4(C)[C@@H](O)CC3[C@]2(C)C5)OC1(C)C (stereo partly specified) | 0.0581 µM (active) | 0.536 µM (active) | 0.649 | 0.0644 µM (active) | 0.098 µM (active) | 0.115 µM (active) |  | 0.117 µM (active) | 0.135 µM (active) | 0.0735 µM (active) | 2.9 µM (inactive) | 0.498 µM (active) | 0.435 µM (active) | 0.428 µM (active) | 0.0364 µM (active) | 0.0904 µM (active) | 0.139 µM (active) | 0.377 µM (active) | 0.00302 µM (active) | 0.614 µM (active) |
| CCCCCCCNC(P(=O)(O)O)P(=O)(O)O | > 100 µM (inactive) | 56.2 µM (inactive) | > 100 | > 100 µM (inactive) | > 100 µM (inactive) | > 100 µM (inactive) | > 100 µM (inactive) | > 100 µM (inactive) | > 100 µM (inactive) | > 100 µM (inactive) | > 100 µM (inactive) | > 100 µM (inactive) | > 100 µM (inactive) | > 100 µM (inactive) | 62.8 µM (inactive) | > 100 µM (inactive) | > 100 µM (inactive) | > 100 µM (inactive) | > 100 µM (inactive) | > 100 µM (inactive) |
| CCCCC(C)C1CCC2(C)C=CC(=O)C(C)=C2C1O (stereo unspecified) | > 100 µM (inactive) | > 100 µM (inactive) | > 100 | > 100 µM (inactive) | > 100 µM (inactive) | > 100 µM (inactive) |  | > 100 µM (inactive) | > 100 µM (inactive) | > 100 µM (inactive) | > 100 µM (inactive) | > 100 µM (inactive) | > 100 µM (inactive) | > 100 µM (inactive) | > 100 µM (inactive) | > 100 µM (inactive) | > 100 µM (inactive) | > 100 µM (inactive) | > 100 µM (inactive) | > 100 µM (inactive) |
| O=C(O)c1nc2ccc(C(F)(F)F)cc2[nH]c1=O | > 100 µM (inactive) | > 100 µM (inactive) | > 100 | > 100 µM (inactive) | > 100 µM (inactive) | > 100 µM (inactive) | > 100 µM (inactive) | > 100 µM (inactive) | > 100 µM (inactive) | > 100 µM (inactive) | > 100 µM (inactive) | > 100 µM (inactive) | > 100 µM (inactive) | > 100 µM (inactive) | > 100 µM (inactive) | > 100 µM (inactive) | > 100 µM (inactive) | > 100 µM (inactive) | > 100 µM (inactive) | > 100 µM (inactive) |
| O=c1cc(N2CCCC2)[nH]c(=O)n1-c1cccc(C(F)(F)F)c1 |  | > 100 µM (inactive) | > 100 | > 100 µM (inactive) | > 100 µM (inactive) | > 100 µM (inactive) | > 100 µM (inactive) | > 100 µM (inactive) | > 100 µM (inactive) | > 100 µM (inactive) | > 100 µM (inactive) | > 100 µM (inactive) | > 100 µM (inactive) | > 100 µM (inactive) | 76.4 µM (inactive) | > 100 µM (inactive) | > 100 µM (inactive) | > 100 µM (inactive) | > 100 µM (inactive) | > 100 µM (inactive) |
| Cc1c2ccnc(-c3ccccc3)c2cc2c1[nH]c1ccccc12 | 1.29 µM (inactive) | 3.07 µM (inactive) | 0.773 | 2.09 µM (inactive) | 1.58 µM (inactive) | 1.05 µM (active) |  | 2.13 µM (inactive) | 2.64 µM (inactive) | 1.06 µM (active) | 0.492 µM (active) | 2.56 µM (inactive) | 3.77 µM (inactive) | 1.13 µM (inactive) | 2.77 µM (inactive) | 4.31 µM (inactive) | 2.9 µM (inactive) | 2.99 µM (inactive) | 0.873 µM (active) | 2.7 µM (inactive) |

— ChEMBL document CHEMBL1201862, “PubChem BioAssay data set” (2004)
